In ChEMBL document CHEMBL4411303, “Synthesis of tetrazole derivatives bearing pyrrolidine scaffold and evaluation of their antifungal activity against Candida albicans” (Eur J Med Chem, 2019):

Experiments:
Format in all cases: functional
Candida albicans [1] = assay: Antifungal activity against Candida albicans ATCC 90028 assessed as planktonic growth inhibition at 20.95 uM after 48 hrs by M27-A3 protocol based method relative to control; conditions: ATCC 90028, 48 h, read-out: GI
Candida albicans [2] = assay: Antifungal activity against Candida albicans ATCC 90028 assessed as planktonic growth inhibition at 2.62 uM after 48 hrs by M27-A3 protocol based method relative to control; conditions: ATCC 90028, 48 h, read-out: GI
Candida albicans [3] = assay: Antifungal activity against Candida albicans ATCC 90028 assessed as planktonic growth inhibition at 0.33 uM after 48 hrs by M27-A3 protocol based method relative to control; conditions: ATCC 90028, 48 h, read-out: GI
Candida albicans [4] = assay: Antifungal activity against Candida albicans ATCC 90028 assessed as planktonic growth inhibition at 0.65 uM after 48 hrs by M27-A3 protocol based method relative to control; conditions: ATCC 90028, 48 h, read-out: GI
Candida albicans [5] = assay: Antifungal activity against Candida albicans ATCC 90028 assessed as planktonic growth inhibition at 41.9 uM after 48 hrs by M27-A3 protocol based method relative to control; conditions: ATCC 90028, 48 h, read-out: GI
Candida albicans [6] = assay: Antifungal activity against Candida albicans ATCC 90028 assessed as planktonic growth inhibition at 0.08 uM after 48 hrs by M27-A3 protocol based method relative to control; conditions: ATCC 90028, 48 h, read-out: GI
Candida albicans [7] = assay: Antifungal activity against Candida albicans ATCC 90028 assessed as planktonic growth inhibition at 1.31 uM after 48 hrs by M27-A3 protocol based method relative to control; conditions: ATCC 90028, 48 h, read-out: GI
Candida albicans [8] = assay: Antifungal activity against Candida albicans ATCC 90028 assessed as planktonic growth inhibition at 0.16 uM after 48 hrs by M27-A3 protocol based method relative to control; conditions: ATCC 90028, 48 h, read-out: GI
Candida albicans [9] = assay: Antifungal activity against Candida albicans ATCC 90028 assessed as planktonic growth inhibition at 10.47 uM after 48 hrs by M27-A3 protocol based method relative to control; conditions: ATCC 90028, 48 h, read-out: GI
Candida albicans [10] = assay: Antifungal activity against Candida albicans ATCC 90028 assessed as planktonic growth inhibition at 5.24 uM after 48 hrs by M27-A3 protocol based method relative to control; conditions: ATCC 90028, 48 h, read-out: GI
Candida albicans [11] = assay: Fungicidal activity against Candida albicans ATCC 90028 assessed as log reduction in fungal load incubated for 48 hrs followed by replating on sabouraud dextrose agar plate and measured after 48 hrs
Candida albicans [12] = assay: Antifungal activity against Candida albicans ATCC 90028 assessed as planktonic growth inhibition at 11.51 uM after 48 hrs by M27-A3 protocol based method relative to control; conditions: ATCC 90028, 48 h, read-out: GI
Candida albicans [13] = assay: Antifungal activity against Candida albicans ATCC 90028 assessed as planktonic growth inhibition at 0.09 uM after 48 hrs by M27-A3 protocol based method relative to control; conditions: ATCC 90028, 48 h, read-out: GI
Candida albicans [14] = assay: Antifungal activity against Candida albicans ATCC 90028 assessed as planktonic growth inhibition at 0.18 uM after 48 hrs by M27-A3 protocol based method relative to control; conditions: ATCC 90028, 48 h, read-out: GI
Candida albicans [15] = assay: Antifungal activity against Candida albicans ATCC 90028 assessed as planktonic growth inhibition at 0.72 uM after 48 hrs by M27-A3 protocol based method relative to control; conditions: ATCC 90028, 48 h, read-out: GI
Candida albicans [16] = assay: Antifungal activity against Candida albicans ATCC 90028 assessed as planktonic growth inhibition at 46.05 uM after 48 hrs by M27-A3 protocol based method relative to control; conditions: ATCC 90028, 48 h, read-out: GI
Candida albicans [17] = assay: Antifungal activity against Candida albicans ATCC 90028 assessed as planktonic growth inhibition at 0.36 uM after 48 hrs by M27-A3 protocol based method relative to control; conditions: ATCC 90028, 48 h, read-out: GI
Candida albicans [18] = assay: Antifungal activity against Candida albicans ATCC 90028 assessed as planktonic growth inhibition at 1.44 uM after 48 hrs by M27-A3 protocol based method relative to control; conditions: ATCC 90028, 48 h, read-out: GI
Candida albicans [19] = assay: Antifungal activity against Candida albicans ATCC 90028 assessed as planktonic growth inhibition at 5.76 uM after 48 hrs by M27-A3 protocol based method relative to control; conditions: ATCC 90028, 48 h, read-out: GI
Candida albicans [20] = assay: Antifungal activity against Candida albicans ATCC 90028 assessed as planktonic growth inhibition at 23.02 uM after 48 hrs by M27-A3 protocol based method relative to control; conditions: ATCC 90028, 48 h, read-out: GI
Candida albicans [21] = assay: Antifungal activity against Candida albicans ATCC 90028 assessed as planktonic growth inhibition at 2.88 uM after 48 hrs by M27-A3 protocol based method relative to control; conditions: ATCC 90028, 48 h, read-out: GI
Candida albicans [22] = assay: Antifungal activity against Candida albicans ATCC 90028 assessed as planktonic growth inhibition at 2.72 uM after 48 hrs by M27-A3 protocol based method relative to control; conditions: ATCC 90028, 48 h, read-out: GI
Candida albicans [23] = assay: Antifungal activity against Candida albicans ATCC 90028 assessed as planktonic growth inhibition at 43.49 uM after 48 hrs by M27-A3 protocol based method relative to control; conditions: ATCC 90028, 48 h, read-out: GI
Candida albicans [24] = assay: Antifungal activity against Candida albicans ATCC 90028 assessed as planktonic growth inhibition at 0.17 uM after 48 hrs by M27-A3 protocol based method relative to control; conditions: ATCC 90028, 48 h, read-out: GI
Candida albicans [25] = assay: Antifungal activity against Candida albicans ATCC 90028 assessed as planktonic growth inhibition at 0.34 uM after 48 hrs by M27-A3 protocol based method relative to control; conditions: ATCC 90028, 48 h, read-out: GI
Candida albicans [26] = assay: Antifungal activity against Candida albicans ATCC 90028 assessed as planktonic growth inhibition at 21.75 uM after 48 hrs by M27-A3 protocol based method relative to control; conditions: ATCC 90028, 48 h, read-out: GI
Candida albicans [27] = assay: Antifungal activity against Candida albicans ATCC 90028 assessed as planktonic growth inhibition at 1.36 uM after 48 hrs by M27-A3 protocol based method relative to control; conditions: ATCC 90028, 48 h, read-out: GI
Candida albicans [28] = assay: Antifungal activity against Candida albicans ATCC 90028 assessed as planktonic growth inhibition at 0.68 uM after 48 hrs by M27-A3 protocol based method relative to control; conditions: ATCC 90028, 48 h, read-out: GI
Candida albicans [29] = assay: Antifungal activity against Candida albicans ATCC 90028 assessed as planktonic growth inhibition at 5.44 uM after 48 hrs by M27-A3 protocol based method relative to control; conditions: ATCC 90028, 48 h, read-out: GI
Candida albicans [30] = assay: Antifungal activity against Candida albicans ATCC 90028 assessed as planktonic growth inhibition at 10.87 uM after 48 hrs by M27-A3 protocol based method relative to control; conditions: ATCC 90028, 48 h, read-out: GI

SMILES	inhibition of growth at 20.95 µM (Candida albicans [1]) [%]	inhibition of growth at 2.62 µM (Candida albicans [2]) [%]	inhibition of growth at 0.33 µM (Candida albicans [3]) [%]	inhibition of growth at 0.65 µM (Candida albicans [4]) [%]	inhibition of growth at 41.9 µM (Candida albicans [5]) [%]	inhibition of growth at 0.08 µM (Candida albicans [6]) [%]	inhibition of growth at 1.31 µM (Candida albicans [7]) [%]	inhibition of growth at 0.16 µM (Candida albicans [8]) [%]	inhibition of growth at 10.47 µM (Candida albicans [9]) [%]	inhibition of growth at 5.24 µM (Candida albicans [10]) [%]	log(activity) (Candida albicans [11])	inhibition of growth at 2.72 µM (Candida albicans [22]) [%]	inhibition of growth at 43.49 µM (Candida albicans [23]) [%]	inhibition of growth at 0.17 µM (Candida albicans [24]) [%]	inhibition of growth at 0.34 µM (Candida albicans [25]) [%]	inhibition of growth at 21.75 µM (Candida albicans [26]) [%]	inhibition of growth at 1.36 µM (Candida albicans [27]) [%]	inhibition of growth at 0.68 µM (Candida albicans [28]) [%]	inhibition of growth at 5.44 µM (Candida albicans [29]) [%]	inhibition of growth at 10.87 µM (Candida albicans [30]) [%]	further results
Cc1cccc(C2CCCN2CCCn2nnc(-c3ccc(Cl)cc3)n2)c1 (stereo not given)	98.8	99.3	99.3	99.3	98.9	99.3	99.3	99.3	98.9	99.3	-0.4										
Cc1ccc(C2CCCN2CCCn2nnc(-c3ccc(Cl)cc3)n2)cc1 (stereo not given)	99.4	99.2	99.3	99.2	99.2	99.2	99.4	99.1	99.4	99.4	-0.5										
Cc1ccc(C2CCCN2CCCn2nnc(-c3ccccc3)n2)cc1 (stereo not given)											-0.6										inhibition of growth at 11.51 µM (Candida albicans [12]): 99.5%; inhibition of growth at 0.09 µM (Candida albicans [13]): 98.9%; inhibition of growth at 0.18 µM (Candida albicans [14]): 99.3%; inhibition of growth at 0.72 µM (Candida albicans [15]): 99.3%; inhibition of growth at 46.05 µM (Candida albicans [16]): 99%; inhibition of growth at 0.36 µM (Candida albicans [17]): 99%; inhibition of growth at 1.44 µM (Candida albicans [18]): 99.2%; inhibition of growth at 5.76 µM (Candida albicans [19]): 99.2%; inhibition of growth at 23.02 µM (Candida albicans [20]): 99%; inhibition of growth at 2.88 µM (Candida albicans [21]): 99.2%
Cc1cccc(C2CCCN2CCCn2nnc(-c3ccccc3Cl)n2)c1 (stereo not given)	99.7	99.3	99.2	99.2	99.8	99.1	99.2	99.1	99.6	99.4	-0.5										
Cc1ccc(-c2nnn(CCCN3CCCC3c3ccccc3)n2)cc1 (stereo not given)											-1										inhibition of growth at 11.51 µM (Candida albicans [12]): 93.4%; inhibition of growth at 0.09 µM (Candida albicans [13]): 99%; inhibition of growth at 0.18 µM (Candida albicans [14]): 99.8%; inhibition of growth at 0.72 µM (Candida albicans [15]): 98.8%; inhibition of growth at 46.05 µM (Candida albicans [16]): 98.5%; inhibition of growth at 0.36 µM (Candida albicans [17]): 98.8%; inhibition of growth at 1.44 µM (Candida albicans [18]): 97.8%; inhibition of growth at 5.76 µM (Candida albicans [19]): 94.4%; inhibition of growth at 23.02 µM (Candida albicans [20]): 99.4%; inhibition of growth at 2.88 µM (Candida albicans [21]): 95.1%
Clc1ccc(C2CCCN2CCCn2nnc(-c3ccccc3)n2)cc1 (stereo not given)						99.4					-1.4	99.2	99.6	99.3	99.4	99.4	99.4	99.4	99.3	99.2	
Cc1ccc(-c2nnn(CCCN3CCCC3c3ccc(Cl)cc3)n2)cc1 (stereo not given)	99.2	99.3	99.2	99.1	98.8	99.4	99.2	99.5	99.4	99	-0.4										
Clc1ccc(-c2nnn(CCCN3CCCC3c3ccccc3)n2)cc1 (stereo not given)						99.3					-0.5	99.4	99.1	99.3	99.3	99.2	99.4	99.3	99.3	99.2	
Clc1ccccc1-c1nnn(CCCN2CCCC2c2ccccc2)n1 (stereo not given)						98.8					-0.3	99.1	99.5	98.9	99	99.4	99.1	99	99.1	99.2	
Cc1ccc(C2CCCN2CCCn2nnc(-c3ccccc3Cl)n2)cc1 (stereo not given)	99.5	99.3	99.2	99.2	99.6	98.8	99.2	98.9	99.5	99.4	-0.2										
